This note sets out measurements from patent US7414072B2, “Aryl 5-thio-β-d-glucopyranoside derivatives and therapeutic agents for diabetes containing the same” (Taisho Pharmaceutical Co., Ltd., priority 2002, dated 2008).

Where “and” joins values, the source holds several entries; their conditions need not be identical. Equal values may be shown once.

As for `COc1ccc(CNC(=O)c2c(O)cccc2O[C@@H]2S[C@H](CO)[C@@H](O)[C@H](O)[C@H]2O)cc1` [Compound 84, 3′-hydroxy-2′-(4′-methoxybenzylaminocarbonyl)phenyl 5-thio-β-D-glucopyranoside], the melting point (in general, the temperature, or range, at which the solid turns liquid) fell in the range of 183 to 185 °C.

Turning to `CCc1ccc(Cc2ccc(F)cc2O[C@@H]2S[C@H](CO)[C@@H](O)[C@H](O)[C@H]2O)cc1` [Compound 64, 2′-(4′-ethylbenzyl)-5′-fluorophenyl 5-thio-β-D-glucopyranoside], the melting point was 156 to 157 °C. The figure for `CCc1cccc(Cc2ccccc2O[C@@H]2S[C@H](CO)[C@@H](O)[C@H](O)[C@H]2O)c1` [Compound 57] is 144 to 145 °C.

Compound `CC(C)c1ccc(Cc2cc(Cl)ccc2O[C@@H]2S[C@H](CO)[C@@H](O)[C@H](O)[C@H]2O)cc1` [Compound 63, 4′-chloro-2′-(4′-isopropylbenzyl)phenyl 5-thio-β-D-glucopyranoside] showed a melting point of 146 to 148.5 °C. The figure for `Cc1ccccc1Cc1cc(Cl)ccc1O[C@@H]1S[C@H](CO)[C@@H](O)[C@H](O)[C@H]1O` [Compound 82, 4′-chloro-2′-(2′-methylbenzyl)phenyl 5-thio-β-D-glucopyranoside] is 147 to 149 °C; for `Cn1cc(Cc2ccccc2O[C@@H]2S[C@H](CO)[C@@H](O)[C@H](O)[C@H]2O)cn1` [Compound 55] it is 148.5 to 149.5 °C; for `CCc1ccc(Cc2ccc(O[C@@H]3S[C@H](CO)[C@@H](O)[C@H](O)[C@H]3O)cc2)cc1` [Compound 50] it is 137 to 138.5 °C. The figure for `Cc1ccc(Cc2ccccc2O[C@@H]2S[C@H](CO)[C@@H](O)[C@H](O)[C@H]2O)cc1` [Compound 3, 2′-(4′-methylbenzyl)phenyl 5-thio-β-D-glucopyranoside] is 184 to 186 °C. The figure for `CCCCCOc1ccc(Cc2cc(Cl)ccc2O[C@@H]2S[C@H](CO)[C@@H](O)[C@H](O)[C@H]2O)cc1` [Compound 72, 4′-chloro-2′-(4′-pentyloxybenzyl)phenyl 5-thio-β-D-glucopyranoside] is 143 to 144.5 °C; for `CCc1ccc(Cc2cc(CO)ccc2O[C@@H]2S[C@H](CO)[C@@H](O)[C@H](O)[C@H]2O)cc1` [Compound 13, 2′-(4′-ethylbenzyl)-4′-(hydroxymethyl)phenyl 5-thio-β-D-glucopyranoside] it is 202.5 to 205 °C; for `CCc1ccc(Cc2ccc(O)cc2O[C@@H]2S[C@H](CO)[C@@H](O)[C@H](O)[C@H]2O)cc1` [Compound 21, 2′-(4′-ethylbenzyl)-5′-hydroxyphenyl 5-thio-β-D-glucopyranoside] it is 172 to 173.5 °C. The compound `CCc1ccc(Cc2ccc(CO)cc2O[C@@H]2S[C@H](CO)[C@@H](O)[C@H](O)[C@H]2O)cc1` [Compound 39, 2′-(4′-ethylbenzyl)-5′-(hydroxymethyl)phenyl 5-thio-β-D-glucopyranoside] displayed a melting point of 206 to 211 °C.

`CN(C)c1ccc(Cc2cc(Cl)ccc2O[C@@H]2S[C@H](CO)[C@@H](O)[C@H](O)[C@H]2O)cc1` [Compound 52, 4′-chloro-2′-(4′-N,N-dimethylaminobenzyl)phenyl 5-thio-β-D-glucopyranoside] had a melting point of 183 to 184 °C. The figure for `CCc1ccc(Cc2cc(F)ccc2O[C@@H]2S[C@H](CO)[C@@H](O)[C@H](O)[C@H]2O)cc1` [Compound 8, 2′-(4′-ethylbenzyl)-4′-fluorophenyl 5-thio-β-D-glucopyranoside] is 163 to 165.5 °C; for `CCc1ccc(Cc2cc(Br)ccc2O[C@@H]2S[C@H](CO)[C@@H](O)[C@H](O)[C@H]2O)cc1` [Compound 10, 4′-bromo-2′-(4′-ethylbenzyl)phenyl 5-thio-β-D-glucopyranoside] it is 172 to 173.5 °C; for `OC[C@H]1S[C@@H](Oc2ccc(Cl)cc2Cc2ccccc2Cc2ccccc2)[C@H](O)[C@@H](O)[C@@H]1O` [Compound 79] it is 150.5 to 151.5 °C. For `Cc1csc(Cc2ccccc2O[C@@H]2S[C@H](CO)[C@@H](O)[C@H](O)[C@H]2O)n1` [Compound 37], the melting point lay within 197 to 200 °C. `CCc1ccc(Cc2cc(Cl)ccc2O[C@@H]2S[C@H](CO)[C@@H](O)[C@H](O)[C@H]2O)cc1` [Compound 2, 4′-chloro-2′-(4′-ethylbenzyl)phenyl 5-thio-β-D-glucopyranoside] returned a melting point of 173.5 to 177.5 °C.

Turning to `CCc1ccc(Cc2ccc(COC(C)=O)cc2O[C@@H]2S[C@H](CO)[C@@H](O)[C@H](O)[C@H]2O)cc1` [Compound 77, 5′-(acetoxymethyl)-2′-(4′-ethylbenzyl)phenyl 5-thio-β-D-glucopyranoside], the melting point fell in the range of 158 to 160 °C.

In turn, `CCSc1ccc(Cc2ccccc2O[C@@H]2S[C@H](CO)[C@@H](O)[C@H](O)[C@H]2O)cc1` [Compound 48, 2′-(4′-ethylthiobenzyl)phenyl 5-thio-β-D-glucopyranoside] displayed a melting point of 174 to 176.5 °C.

Take `OC[C@H]1S[C@@H](Oc2ccccc2Cc2ccccc2)[C@H](O)[C@@H](O)[C@@H]1O` [Compound 11, 2′-benzylphenyl 5-thio-β-D-glucopyranoside]: the melting point fell in the range of 171 to 174 °C. The figure for `OC[C@H]1S[C@@H](Oc2ccc(Cl)cc2Cc2ccc(F)cc2F)[C@H](O)[C@@H](O)[C@@H]1O` [Compound 60, 4′-chloro-2′-(2′,4′-difluorobenzyl)phenyl 5-thio-β-D-glucopyranoside] is 175.5 to 177 °C.

Compound `CCc1ccccc1Cc1ccccc1O[C@@H]1S[C@H](CO)[C@@H](O)[C@H](O)[C@H]1O` [Compound 58] showed a melting point of 96 to 101 °C.

With `CCc1ccc(Cc2cc(Cl)cc(Cl)c2O[C@@H]2S[C@H](CO)[C@@H](O)[C@H](O)[C@H]2O)cc1` [Compound 31, 4′,6′-dichloro-2′-(4′-ethylbenzyl)phenyl 5-thio-β-D-glucopyranoside], the melting point was in the range of 72 to 80 °C.

As to `CCc1ccc(Cc2cc(C(=O)OC)ccc2O[C@@H]2S[C@H](CO)[C@@H](O)[C@H](O)[C@H]2O)cc1` [Compound 15, 2′-(4′-ethylbenzyl)-4′-methoxycarbonylphenyl 5-thio-β-D-glucopyranoside], the melting point was 196 to 198 °C.

`CCc1ccc(Cc2cc(C)ccc2O[C@@H]2S[C@H](CO)[C@@H](O)[C@H](O)[C@H]2O)cc1` [Compound 7, 2′-(4′-ethylbenzyl)-4′-methylphenyl 5-thio-β-D-glucopyranoside] had a melting point of 154 to 156 °C. As to `O=C(Nc1ccccc1)c1cc(Cl)ccc1O[C@@H]1S[C@H](CO)[C@@H](O)[C@H](O)[C@H]1O` [Compound 27], the melting point is 96 to 105 °C. The figure for `OC[C@H]1S[C@@H](Oc2ccc(Cl)cc2Cc2cccc(Oc3ccccc3)c2)[C@H](O)[C@@H](O)[C@@H]1O` [Compound 62] is 124.5 to 127 °C; for `CCOc1ccccc1Cc1cc(Cl)ccc1O[C@@H]1S[C@H](CO)[C@@H](O)[C@H](O)[C@H]1O` [Compound 81, 4′-chloro-2′-(2′-ethoxybenzyl)phenyl 5-thio-β-D-glucopyranoside] it is 196.5 to 198.5 °C; for `CS(=O)(=O)Nc1ccc(Cc2cc(Cl)ccc2O[C@@H]2S[C@H](CO)[C@@H](O)[C@H](O)[C@H]2O)cc1` [Compound 51, 4′-chloro-2′-(4′-methylsulfonylaminobenzyl)phenyl 5-thio-β-D-glucopyranoside] it is 151 to 153 °C. The figure for `OC[C@H]1S[C@@H](Oc2ccccc2OCc2ccccc2)[C@H](O)[C@@H](O)[C@@H]1O` [Compound 25] is 148 to 150 °C; for `Cc1ccc(Cc2ccccc2O[C@@H]2S[C@H](CO)[C@@H](O)[C@H](O)[C@H]2O)nc1` [Compound 36] it is 177 to 180 °C. The figure for `OC[C@H]1S[C@@H](Nc2ccccc2Cc2ccccc2)[C@H](O)[C@@H](O)[C@@H]1O` [Compound 35] is 144 to 151 °C; for `COc1ccc(Cc2cc(Cl)ccc2O[C@@H]2S[C@H](CO)[C@@H](O)[C@H](O)[C@H]2O)c(OC)c1` [Compound 80, 4′-chloro-2′-(2′,4′-dimethoxybenzyl)phenyl 5-thio-β-D-glucopyranoside] it is 195.5 to 197 °C; for `COc1ccc(Cc2ccccc2O[C@@H]2S[C@H](CO)[C@@H](O)[C@H](O)[C@H]2O)cc1` [Compound 4, 2′-(4′-methoxybenzyl)phenyl 5-thio-β-D-glucopyranoside] it is 166 to 167.5 °C.

Consider `CCn1cc(Cc2ccccc2O[C@@H]2S[C@H](CO)[C@@H](O)[C@H](O)[C@H]2O)cn1` [Compound 54], for which the melting point was in the range of 175 to 177.5 °C. For `CCc1ccc(Cc2ccccc2O[C@@H]2S[C@H](CO)[C@@H](O)[C@H](O)[C@H]2O)cc1` [Compound 1, 2′-(4′-ethylbenzyl)phenyl 5-thio-β-D-glucopyranoside], the melting point was 154 to 160 °C and 154 to 169 °C and 156.5 to 157.5 °C. The figure for `OC[C@H]1S[C@@H](Oc2ccccc2Cc2ccc(N3CCOCC3)cc2)[C@H](O)[C@@H](O)[C@@H]1O` [Compound 73, 2′-(4′-morpholinobenzyl)phenyl 5-thio-β-D-glucopyranoside] is 174 to 176.5 °C; for `OC[C@H]1S[C@@H](Oc2ccccc2Cc2ccc(N3CCCCC3)cc2)[C@H](O)[C@@H](O)[C@@H]1O` [Compound 74, 2′-(4′-piperidinobenzyl)phenyl 5-thio-β-D-glucopyranoside] it is 156.5 to 160 °C.

With `CCCCc1ccc(Cc2cc(Cl)ccc2O[C@@H]2S[C@H](CO)[C@@H](O)[C@H](O)[C@H]2O)cc1` [Compound 46, 2′-(4′-butylbenzyl)-4′-chlorophenyl 5-thio-β-D-glucopyranoside], the melting point was 165 to 168 °C. The figure for `CC(=O)Nc1ccc(Cc2cc(Cl)ccc2O[C@@H]2S[C@H](CO)[C@@H](O)[C@H](O)[C@H]2O)cc1` [Compound 47, 2′-(4′-acetylaminobenzyl)-4′-chlorophenyl 5-thio-β-D-glucopyranoside] is 235 to 236.5 °C; for `CC(C)(C)c1ccc(Cc2cc(Cl)ccc2O[C@@H]2S[C@H](CO)[C@@H](O)[C@H](O)[C@H]2O)cc1` [Compound 75, 2′-(4′-t-butylbenzyl)-4′-chlorophenyl 5-thio-β-D-glucopyranoside] it is 79 to 82.5 °C.
